Test results taken from patent publication US20030232340A1 (priority 2002, published 2003).

Biological target: T1, Concanavalin A (Canavalia ensiformis, UniProt P02866)
T1 construct: purchased Sigma C-5275
Assay: Homogeneous cubic phase dispersion assay: displacement of biotinylated mannotriose-avidin/HRP, Dextran Blue detection
Assay type: binding
Details: 500 microliters of saturated solution added to 3.0 ml
Experimental: Experimental Results—A cubic phase was first prepared by mixing 0.752 grams of Pluronic P123 (an insoluble surfactant), 0.705 grams of linalool, and 0.703 grams of water. An amount of 1.005 grams of this cubic phase was put in a glass flask together with 0.054 grams of the rhamnolipid surfactant JBR-99 (Jeneil Biosurfactant, Inc.) and 35 ml of pH 4.5 acetate buffer containing 4 mM MnCl2 and 4 mM CaCl2. The flask was then sonicated to disperse the cubic phase. Following this, the dispersion was microfluidized in a model 110S Microfluidizer (Microfluidics, Inc.) to a particle size that was fine enough where the absorbance measured on an Ultrospec 3000 UV-Vis spectrometer, at a wavelength of 620 nm, was about 0.2 absorbance units.
The following reagents were then added to 2 ml of the cubic phase dispersion: […]
After the addition of the Dextran Blue-based Detection System, absorbance readings at 620 nm were monitored continuously. After the readings stabilized at 0.40 absorbance units, 500 microliters of Displacement Solution were added. […]
Upon addition of this alpha methylmannoside—the analyte—the absorbance dropped from 0.40 to 0.26 absorbance units. […] The majority of the decrease in absorbance was due to the enzymatic action of displaced HRP on the Dextran Blue.

## COC1O[C@H](CO)[C@@H](O)[C@H](O)[C@@H]1O (stereo partly drawn) [alpha methylmannoside]
14% expected from dilution alone
  decrease in absorbance at 620 nm: 35%
Reading before addition 0.40
  absorbance at 620 nm after addition of analyte: 0.26 absorbance units
